These results are taken from paper PMC8576102, “Structure–Activity Relationship of Novel Second-Generation Synthetic Cathinones: Mechanism of Action, Locomotion, Reward, and Immediate-Early Genes” (Frontiers in Pharmacology, 2021).

The target in one experiment is T1, hDAT (Homo sapiens, UniProt Q01959).
T1 construct: YFP (yellow-fluorescent protein); expressed in transfected cells
Description: Uptake inhibition assay, [3H]MPP+ uptake in transfected HEK293 cells. Format: cell-based. Here is the method:
Human embryonic kidney (HEK293) cells stably expressing the yellow-fluorescent protein (YFP)-tagged version of the human isoforms of SERT (abbreviated as SERT) and DAT (abbreviated as DAT) were used for the uptake inhibition and release assays. The generation and maintenance of stable, monoclonal cell lines expressing these transporters was conducted as described by ([Mayer F. P. et al., 2016]; [Mayer et al., 2016 FP.]). HEK293 cells were maintained in DMEM supplemented with heat-inactivated 10% FBS, 100 µg/100 ml streptomycin, 100 U/ml penicillin, and Geneticin (G418; 50 μg/ml) and cultured in a humidified atmosphere (5% CO2, 37°C). The cells were seeded at a density of 0.36 million cells/well onto 96-well plates previously coated (24 h) with poly-D-lysine (PDL).
The medium was removed and immediately replaced with 200 µL/well of Krebs-HEPES buffer (KHB; 10 mM HEPES, 120 mM NaCl, 3 mM KCl, 2 mM CaCl2·2H2O, 2 mM MgCl2·6H2O, 20 mM D-glucose; pH 7.3). The cells were pre-incubated with different concentrations of the drug in KHB at a final volume of 50 µL/well for 5 min (DAT, SERT). Immediately after, the pre-incubation solution was removed and the cells were incubated with the tritiated substrates, 0.02 µM [^3H]MPP^+ for the DAT (3 min) and 0.1 µM [^3H]5-HT for the SERT (1 min), along with different concentrations of the drug in KHB. Finally, the [^3H]substrate was removed and the cells were washed with ice-cold KHB followed by the addition of sodium dodecyl sulfate (SDS) 1%. The lysate was then added to the scintillation fluid, and the radioactivity was quantified with a beta-scintillation counter (Perkin Elmer, Waltham, MA, United States).
The uptake in the absence of the drug compound was normalized to 100%, being the percentage of the uptake in the presence of different concentrations of the drug expressed as a percentage thereof. 3–4 independent experiments were performed in duplicate.
Data were expressed as mean ± SEM. Competition curves were plotted and fitted by non-linear regression, and data were best fitted to a sigmoidal dose-response curve to obtain an IC50 value. 1/DAT IC50: 1/SERT IC50 was used to calculate transporter ratios. Data from batch release assays were statistically analyzed with a mixed-effects model, employing Šidák’s correction for multiple comparisons. One-way/two-way ANOVA or two-way ANOVA of repeated measures, followed by Tukey’s or Dunnett’s post hoc test, was also used when appropriate. The α error probability was set at 0.05 (p < 0.05). The size group for each experiment and statistical results are shown in the corresponding legend of figures. Statistical calculations were performed using GraphPad Prism (GraphPad Software, San Diego, CA, United States).

The subject of a further experiment is Swiss CD-1 mice. Description: Conditioned place preference (CPP). The following applies: 30 mg/kg i.p. Format: in vivo. Here is the method:
For the behavioral and gene expression experiments, male Swiss CD-1 mice (Janvier, Le Genest, France) weighing 30–35 g (6–8 weeks old) were used. With the aim of reducing the number of animals and minimize their suffering, animal procedures were performed in accordance with the ARRIVE guidelines. All animal care and experimental protocols in this study were in accordance with the guidelines of the European Community Council (2010/63/EU), as amended by Regulation (EU) 2019/1010, and approved by the Animal Ethics Committee of the University of Barcelona under the supervision of the Autonomous Government of Catalonia. The animals were housed in temperature-controlled conditions (22 ± 1°C) under a 12 h light/dark cycle and had free access to food and drinking water. During the study, the animals were supervised immediately after injection and during the behavioral procedure as well as 24 h after injection, and different parameters were visually evaluated for humane endpoints, such as self-mutilations, strange vocalizations, abnormal posture, or a greater weight loss than 20%. The sample size was determined using GPower software. […]
The rewarding effects were determined using a place conditioning paradigm as described by [Duart-Castells et al. (2019]). […] The time spent in each compartment was recorded (Smart 3.0, Panlab, Spain). […]

The subject of a further experiment is Arc mRNA. Description: Arc mRNA expression (qPCR) in ventral and dorsal striatum. Format: in vivo, mice. The following applies: 10 mg/kg i.p., 120 min after administration, vs saline. As for the experimental part: (§1) Mice were injected with an acute dose of 10 mg/kg i.p. of the corresponding synthetic cathinone or saline solution. The dose was chosen according to the behavioral results obtained since it caused significant response in both CPP and HLA tests in all compounds tested. 30 min or 2 h post-administration, mice were sacrificed by cervical dislocation and the VS, DS, and mPFC were dissected out ([Paxinos and Franklin, 2004]) using a mouse brain acrylic matrix (Agnthos, Sweden) and stored at -80°C until use. Total RNA was isolated following a standard TRIsure reagent–chloroform extraction protocol ([Duart-Castells et al., 2019]).
(§2) Reverse transcription polymerase chain reaction (RT-PCR) was carried out to obtain complementary DNA (cDNA) by using the High Capacity cDNA Reverse Transcription Kit (Applied Biosystems) and the Veriti thermal cycler (Applied Biosystems, Foster, CA, United States). Synthesis of cDNA was obtained by mixing 1,000 ng of total RNA with the corresponding volumes of each kit reagent to a final volume of 20 μL. Quantitative real-time polymerase chain reaction (qPCR) was performed by using the StepOnePlus^TM Real-Time PCR System and TaqMan PCR Master Mix (Applied Biosystems, Foster, CA, United States). 25 ng of cDNA was loaded in a final volume of 20 μL containing sequence-specific primers and TaqMan probes (Mm01204954_g1 for Arc, Mm04230607_s1 for bdnf, Mm00487425_m1 for c-fos, and Mm00607939_s1 for β-actin). Each sample was tested in duplicate. qPCR conditions were 2 min at 50°C, 10 min at 95°C, 40 cycles/15 s at 95°C, and 60 s at 60°C. Changes in gene expression were defined by using the comparative Ct method for each experimental sample. Gene expression was normalized by using the mean of Ct values of the housekeeping gene β-actin.

In a further experiment the test system is c-fos mRNA. As to the kind of experiment: c-fos mRNA expression (qPCR) in ventral and dorsal striatum. The format is in vivo, mice. The following applies: 10 mg/kg i.p., 30 min after injection, vs saline. As for the experimental part:
as §1, §2

T1 sequence (Q01959 whole entry): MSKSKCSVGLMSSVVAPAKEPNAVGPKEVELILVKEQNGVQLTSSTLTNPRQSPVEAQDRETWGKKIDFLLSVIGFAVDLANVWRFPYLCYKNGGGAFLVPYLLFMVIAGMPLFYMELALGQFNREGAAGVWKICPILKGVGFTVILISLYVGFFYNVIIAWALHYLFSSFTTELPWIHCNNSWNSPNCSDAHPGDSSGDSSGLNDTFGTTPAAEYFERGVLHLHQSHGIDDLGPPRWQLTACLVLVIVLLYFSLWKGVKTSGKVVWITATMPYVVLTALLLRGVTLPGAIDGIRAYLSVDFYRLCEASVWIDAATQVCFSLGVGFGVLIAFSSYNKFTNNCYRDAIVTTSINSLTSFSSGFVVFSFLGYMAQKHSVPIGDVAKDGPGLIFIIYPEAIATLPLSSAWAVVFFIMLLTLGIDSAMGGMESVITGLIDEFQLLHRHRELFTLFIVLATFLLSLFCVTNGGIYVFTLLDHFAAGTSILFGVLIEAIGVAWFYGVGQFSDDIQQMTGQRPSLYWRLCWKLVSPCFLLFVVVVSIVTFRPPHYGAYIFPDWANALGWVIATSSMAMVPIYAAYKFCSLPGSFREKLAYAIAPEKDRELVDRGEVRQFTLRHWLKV

The compound `CCCC(NCC)C(=O)c1ccc2c(c1)OCO2` (stereo not drawn) [N-Ethyl-pentylone, 3’,4’-methylendioxy-α-ethylaminovalerophenone] came in with an IC50 against hDAT of 130 ± 10 nM. The hDAT/hSERT ratio on hDAT (1/DAT IC50: 1/SERT IC50) was 51. Besides, the “CPP rewarding effects vs saline at the highest dose” value in the experiment with Swiss CD-1 mice is “significant increase”. In the experiment on Arc mRNA, the “Arc gene expression in the DS, 120 min” value was “significant increase” and the “Arc gene expression in the VS, 120 min” value is on record as “significant increase”. In the experiment with c-fos mRNA, the “c-fos expression in the DS, 30 min” value is recorded as “increased” and the “c-fos expression in the VS, 30 min” value was “significant overexpression”.
